From PMC4787783 (2015) come the findings set out here.

Each structure is given as a SMILES string.

Test [1] deals with Bulges-TB1 (RNA, G4) UUGUGGUGGGUGGGUGGGU
The experiment in a line: fluorescence enhancement.

Test [2] relates to Spinach (RNA, aptamer) GCAGCCGGCUUGUUGAGUAGAGUGUGAGCUCCGUAACUGGUCGCGUC/GACGCGACCGAAUGAAAUGGUGAAGGACGGGUCCAGCCGGCUGC
Put plainly: fluorescence enhancement.

Test [3] has as its system tRNA-Cys fragment (RNA, G4) GGGGGUAUAGCUCAGUGGUAGAGCAUUUGA
The experiment in a line: fluorescence enhancement.

The subject of test [4] is tRNA-Ala fragment (RNA, G4) GGGGGUGUAGCUCAGUGGUAGAGCGCGUGC
Put plainly: fluorescence enhancement.

Test [5] deals with Tel22-mut (RNA, single strand) AGUGUUAGUGUUAGUGUUAGUG
Put plainly: fluorescence enhancement. The settings on record: 40 mM K+; 20 mM Tris-HCl pH 7.0; 2 µM CyT, 4 µM RNA; very weak fluorescence.

The subject of test [6] is NRAS-mut (RNA, single strand) GUGAGUUGCGUGUCUGUG
The experiment in a line: fluorescence enhancement. The settings on record: 40 mM K+; 20 mM Tris-HCl pH 7.0; 2 µM CyT, 4 µM RNA; very weak fluorescence.

Test [7] relates to 3-WJ (RNA, junction) AGCGCAACCCC/UCGUCAGCU/GGGACGACGU
The experiment in a line: fluorescence enhancement. The settings on record: 40 mM K+; 20 mM Tris-HCl pH 7.0; 2 µM CyT, 4 µM RNA; very weak fluorescence.

The subject of test [8] is 4-WJ (RNA, junction) GCGC/UUUAGC/GAGGUCCU/AGAA. The experiment in a line: fluorescence enhancement. The settings on record: 40 mM K+; 20 mM Tris-HCl pH 7.0; 2 µM CyT, 4 µM RNA; very weak fluorescence.
In test [9] the test system is Tel22 (RNA, G4) AGGGUUAGGGUUAGGGUUAGGG
Put plainly: fluorescence titration, 1:1 fit. The settings on record: 40 mM K+; 20 mM Tris-HCl pH 7.0, 25 °C; 2 µM CyT.

Test [10] concerns VEGF (RNA, G4) GGAGGAGGGGGAGGAGGA
The experiment in a line: fluorescence titration, 1:1 fit. The settings on record: 40 mM K+; 20 mM Tris-HCl pH 7.0, 25 °C; 2 µM CyT.

Test [11] relates to TRF2 (RNA, G4) CGGGAGGGCGGGGAGGGC
The experiment in a line: fluorescence titration, 1:1 fit. The settings on record: 40 mM K+; 20 mM Tris-HCl pH 7.0, 25 °C; 2 µM CyT.

Test [12] relates to BCL-2 (RNA, G4) AGGGGGCCGUGGGGUGGGAGCUGGGG
The experiment in a line: fluorescence titration, 1:1 fit. The settings on record: 40 mM K+; 20 mM Tris-HCl pH 7.0, 25 °C; 2 µM CyT.

The test system of test [13] is NRAS (RNA, G4) GGGAGGGGCGGGUCUGGG
The experiment in a line: fluorescence titration, 1:1 fit. The settings on record: 40 mM K+; 20 mM Tris-HCl pH 7.0, 25 °C; 2 µM CyT.

Test [14] deals with ssAf17 (RNA, single strand) CUGAGUUGUAUAUAUUCG
The experiment in a line: fluorescence titration, 1:1 fit. The settings on record: 40 mM K+; 20 mM Tris-HCl pH 7.0, 25 °C; 2 µM CyT.

The subject of test [15] is ssAf22 (RNA, single strand) UGAGCUUAAUUGUAUAUAUUCG
Put plainly: fluorescence titration, 1:1 fit. The settings on record: 40 mM K+; 20 mM Tris-HCl pH 7.0, 25 °C; 2 µM CyT.

Test [16] has as its system HP18 (HP-18) (RNA, hairpin) CAGUACAGAUCUGUACUG
Put plainly: fluorescence titration, 1:1 fit. The settings on record: 40 mM K+; 20 mM Tris-HCl pH 7.0, 25 °C; 2 µM CyT.

The subject of test [17] is dsNC (RNA, duplex) UUGUGCUACCAGGAGUCUG/CAGACUCCUGGUAGCACAA
The experiment in a line: fluorescence titration, 1:1 fit. The settings on record: 40 mM K+; 20 mM Tris-HCl pH 7.0, 25 °C; 2 µM CyT.

The test system of test [18] is Tel22 (RNA, G4) AGGGUUAGGGUUAGGGUUAGGG
The experiment in a line: fluorescence enhancement. The settings on record: about 290-fold enhancement.

Test [19] has as its system VEGF (RNA, G4) GGAGGAGGGGGAGGAGGA
Put plainly: fluorescence enhancement. The settings on record: about 200-fold enhancement.

Test [20] has as its system ssAf17 (RNA, single strand) CUGAGUUGUAUAUAUUCG
Put plainly: fluorescence enhancement. The settings on record: about 100-fold enhancement.

In test [21] the test system is HP18 (HP-18) (RNA, hairpin) CAGUACAGAUCUGUACUG
Put plainly: fluorescence enhancement. The settings on record: about 330-fold enhancement.

In the case of `CC(=Cc1sc2ccc3ccccc3c2[n+]1CCCS(=O)(=O)[O-])C=C1Sc2ccc3ccccc3c2N1CCCS(=O)(=O)O`, the binding result in test [1] (40 mM K+, 20 mM Tris-HCl pH 7.0, 2 µM CyT, 4 µM RNA, about 1800-fold enhancement) is on record as “yes”; in [2] (40 mM K+, 20 mM Tris-HCl pH 7.0, 2 µM CyT, 4 µM RNA, about 327-fold enhancement) it was “yes”; in test [3] (40 mM K+, 20 mM Tris-HCl pH 7.0, 2 µM CyT, 4 µM RNA, about 205-fold enhancement) it was “yes”; in [4] (40 mM K+, 20 mM Tris-HCl pH 7.0, 2 µM CyT, 4 µM RNA, about 200-fold enhancement) it was “yes”; in test [5], “weak”; in [6], “weak”. For the same compound, the binding result in [7] and in test [8] was “weak” throughout. Further, the binding constant result is given as “(1.17 ± 0.37) × 10^5 M^-1” in [9]; “(1.44 ± 0.29) × 10^5 M^-1” in [10]; “(2.81 ± 0.63) × 10^5 M^-1” in test [11]; “(1.94 ± 0.29) × 10^5 M^-1” in [12]; “(3.49 ± 0.77) × 10^5 M^-1” in [13]; “(4.40 ± 0.38) × 10^4 M^-1” in [14]. In addition, the values for the binding constant result in test [15], in [16] and in [17] were “(4.03 ± 0.36) × 10^4 M^-1”, “(2.89 ± 0.28) × 10^4 M^-1” and “(2.42 ± 0.25) × 10^4 M^-1”, respectively.
Consider `CN1C(=Cc2cc[n+](C)c3ccccc23)Sc2ccccc21`, for which the binding entry in test [18], in [19], in test [20], in test [21], in [1] (about 570-fold enhancement) and in test [2] (about 200-fold enhancement) was “yes” in each case. Besides, the binding result in test [3] (about 150-fold enhancement) and in [4] (about 230-fold enhancement) was “yes” each time.
